Data set [1] in a line: Rate of epimerization of DHE mesylate as a function of pH. The data set is classed as physicochemical. The text has this: Maintaining the pH above 5.0 in the compositions prepared according to the present invention results in a better stability profile when compared to DHE 45 maintained at a pH of 3.4-4.9.
Another data set relates to migraine. The following applies: cited from earlier work.

Counter-ions that a name gives are not always drawn. Like-named read-outs stand apart in the source and are kept apart here.

On to `CN1C[C@H](C(=O)N[C@]2(C)O[C@@]3(O)[C@@H]4CCCN4C(=O)[C@H](Cc4ccccc4)N3C2=O)C[C@@H]2c3cccc4[nH]cc(c34)C[C@H]21` [DHE mesylate, Dihydroergotamine mesylate], for which the figures for the rate of epimerization result in data set [1] (pH of less than 4.0) and in data set [1] (pH of more than 5.0) were “higher” and “significantly lesser”, respectively.
On to `CN1C[C@H](C(=O)N[C@]2(C)O[C@@]3(O)[C@@H]4CCCN4C(=O)[C@H](Cc4ccccc4)N3C2=O)C[C@@H]2c3cccc4[nH]cc(c34)C[C@H]21` [DHE, Dihydroergotamine], for which the “onset of therapeutic efficacy” value was 45 min in the data set with migraine (intranasal) and 120 min with migraine (oral or sublingual delivery). Besides, the onset of action result in the data set on migraine (parenteral administration) was “less than 30 minutes”.

The values are drawn from patent US11786512B2, “Stable pharmaceutical compositions of dihydroergotamine mesylate” (Slayback Pharma LLC, priority 2019, dated 2023).
